Measurements reported in patent publication US11242361B2 (Proteostasis Therapeutics, Inc., priority 2013, dated 2022).
pIC50: −log10 of the molar value.

These compounds were tested against USP14 (Homo sapiens (Human), UniProt P54578) (assay: USP14 Inhibition Assay). Settings: average value from a minimum of two experimental determinations, read-out: IC50 Category.
Chain of USP14 (P54578 whole entry, looked up): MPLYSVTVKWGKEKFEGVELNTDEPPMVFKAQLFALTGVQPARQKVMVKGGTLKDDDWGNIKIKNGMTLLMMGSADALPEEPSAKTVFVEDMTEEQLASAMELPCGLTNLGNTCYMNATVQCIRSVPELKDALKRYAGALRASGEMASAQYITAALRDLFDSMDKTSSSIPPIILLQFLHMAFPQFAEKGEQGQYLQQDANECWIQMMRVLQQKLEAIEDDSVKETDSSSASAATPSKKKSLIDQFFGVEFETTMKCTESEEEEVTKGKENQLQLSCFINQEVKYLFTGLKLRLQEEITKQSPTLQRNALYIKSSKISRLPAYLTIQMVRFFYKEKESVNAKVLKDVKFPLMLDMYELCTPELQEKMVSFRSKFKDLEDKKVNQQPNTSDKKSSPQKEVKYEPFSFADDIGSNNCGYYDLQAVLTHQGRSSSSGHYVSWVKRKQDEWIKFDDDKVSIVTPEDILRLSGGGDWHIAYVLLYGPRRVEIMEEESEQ
Type: biochemical
Description: Example 17: USP14 Inhibition Assay
“I” in the Table below designates an IC50 of >5 μM, “II” in the Table below designates and IC50 between 0.5 and 5 μM, and “III” designates an IC50<0.5 μM. The IC50 values in the Table below represent the average value from a minimum of two experimental determinations.
For Cc1c(C(=O)CN2CCC(O)CC2)c2ncccc2n1-c1ccc(Cl)cc1 [Compound 388], the pIC50 was > 6.30. In the case of Cc1c(C(=O)CN2CCC(O)CC2)c2ccccc2n1-c1ccc(F)cc1 [Compound 389], the pIC50 was > 6.30. For Cc1c(C(=O)CN2CCC(O)(C(F)(F)F)CC2)c2ccccc2n1-c1ccc(Cl)cc1 [Compound 390], the pIC50 was < 5.30. In the case of Cc1c(C(=O)CN2CCC(O)CC2)c2ccccc2n1-c1ccc(F)c(F)c1 [Compound 391], the pIC50 was 5.30 to 6.30. In the case of Cc1c(C(=O)CN2CCC(O)CC2)c2ccccc2n1-c1ccc(Cl)nc1 [Compound 392], the pIC50 was 5.30 to 6.30. Work on Cc1c(C(=O)CN2CCC(O)CC2)c2ccccc2n1-c1ccc(C#N)nc1 [Compound 393] yielded a pIC50 of 5.30 to 6.30. In the case of Cc1c(C(=O)CN2CCC(O)CC2)c2ccc(F)cc2n1-c1ccc(Cl)cc1 [Compound 394], the pIC50 was < 5.30. Cc1c(C(=O)CN2CCC(O)CC2)c2ccccc2n1-c1cccnc1 [Compound 395] was tested, and the pIC50 was < 5.30. For Cc1c(C(=O)CN2CCC(O)CC2)c2ccccc2n1-c1ccncc1 [Compound 396], the pIC50 was < 5.30. With Cc1c(C(=O)CN2CCC(O)CC2)c2ccccc2n1-c1ccccn1 [Compound 397] the pIC50 was < 5.30. Cc1c(C(=O)CN2CCC(O)CC2)c2ccccc2n1-c1ccc(Cl)cn1 [Compound 398] was tested, and the pIC50 was 5.30 to 6.30. In the case of O=C(CN1CCCCC1)c1c(C2CC2)n(-c2ccc(Cl)cc2)c2ccccc12 [Compound 399], the pIC50 was < 5.30. With Cc1c(C(=O)CN2CCC(O)CC2)c2ccccc2n1-c1ncc(Cl)cn1 [Compound 400] the pIC50 was < 5.30. For CCc1c(C(=O)CN2CCCCC2)c2ccccc2n1-c1ccc(Cl)cc1 [Compound 401], the pIC50 was 5.30 to 6.30. Cc1c(C(=O)CN2CCC(O)CC2)c2ccccc2n1-c1ncc(Cl)s1 [Compound 402] was tested, and the pIC50 was < 5.30.
